In ChEMBL document CHEMBL5727253, “Tricyclic compounds and compositions as kinase inhibitors” (2019):
Values joined by “and” are separate entries in the source; they are usually repeats but may differ in a detail not shown here. Equal values may be shown once.

Assay: Biological Assays: The activity of a compound according to the present invention can be assessed by well-known in vitro & in vivo methods. […] CRAF cDNA was subcloned as full length protein, with Y340E and Y341E activating mutations, into a baculovirus expression vector for Sf9 insect cell expression. h14-3-3 zeta cDNA was subcloned into a baculovirus expression vector for SF9 insect cell expression. Sf9 cells co-expressing both proteins were lysed and subjected to immobilized nickel chromatography and eluted with Imidazole. A second column (StrepII binding column) was used and eluted with desthiobiotin. Protein Tags were removed using Prescission enzyme and the protein was further purified using a flowthrough step to remove tags.C-Raf TR refers to a truncated C-Raf protein, a Δ1-324 deletion mutant. C-Raf FL refers to the full-length C-Raf protein.Full length MEK1 with an inactivating K97R ATP binding site mutation is utilized as a RAF substrate. The MEK1 cDNA was subcloned with an N-terminal (his)6 tag into a vector for E. Coli expression. The MEK1 substrate was purified from E. Coli lysate by nickel affinity chromatography followed by anion exchange. The final MEK1 preparation was biotinylated (Pierce EZ-Link Sulfo-NHS-LC-Biotin) and concentrated.Assay Materials: Assay buffer is 50 mM Tris, pH 7.5, 15 mM MgCl2, 0.01% Bovine Serum Albumin (BSA) and 1 mM dithiothreitol (DTT); Stop buffer is 60 mM ethylenediaminetetraacetic acid (EDTA) and 0.01% Tween® 20; b-Raf (V600E), active; biotinylated Mek, kinase dead; Alpha Screen detection kit (available from PerkinElmer™, #6760617R); Anti phospho-MEK1/2 (available from Cell Signaling Technology, Inc. #9121); 384 well low volume assay plates (White Greiner® plates).Assay conditions: b-Raf (V600E) approximately 4 pM; c-Raf approximately 4 nM; biotinylated Mek, kinase dead approximately 10 nM; ATP 10 μM for BRAF (V600E) and 1 μM for CRAF; Pre-incubation time with compounds 60 minutes at room temperature; Reaction time 1 or 3 hours at room temperature.Assay protocol: Raf and biotinylated Mek (kinase dead) were combined at 2× final concentrations in assay buffer (50 mM Tris, pH 7.5, 15 mM MgCl2, 0.01% BSA and 1 mM DTT) and dispensed […] per well in assay plates (Greiner white 384 well assay plates #781207) containing […] of 40× of a Raf kinase inhibitor test compound diluted in 100% DMSO. The plate was incubated for 60 minutes at room temperature. The Raf kinase activity reaction was started by the addition of […] per well of 2×ATP diluted in assay buffer. After 3 hours (b-Raf(V600E)) or 1 hour (c-Raf). The reactions were stopped and the phosphorylated product was measured using a rabbit anti-p-MEK (Cell Signaling, #9121) antibody and the Alpha Screen IgG (ProteinA) detection Kit (PerkinElmer #6760617R), by the addition of […] to the well of a mixture of the antibody (1:2000 dilution) and detection beads (1:2000 dilution of both beads) in Stop/bead buffer (25 mM EDTA, 50 mM Tris, pH 7.5, 0.01% Tween20). The additions were carried out under dark conditions to protect the detection beads from light. A lid was placed on top of the plate and incubated for 1 hour at room temperature, after which the luminescence was read on a PerkinElmer Envision instrument.
Assay type: biochemical

Point of comparison: `CC[C@H]1Cc2nnc(-c3cc(NC(=O)c4ccnc(C(C)(F)F)c4)ccc3C)cc2N2CCOC[C@@H]12`, IC50 0.1 nM. Against it:
- CC[C@H]1Cc2nnc(-c3cc(NC(=O)c4ccnc(C(C)(F)F)c4)ccc3C)cc2N2CCOC[C@H]12 — 2-fold higher, 0.2 nM
- CC[C@@H]1Cc2nnc(-c3cc(NC(=O)c4ccnc(C(C)(F)F)c4)ccc3C)cc2N2CCOC[C@H]12 — the same, 0.1 nM
- Cc1ccc(NC(=O)c2ccnc(C(C)(F)F)c2)cc1-c1ccc2c(c1)N1CCOC[C@H]1[C@@](C)(N)C2 — 6.1-fold higher, 0.61 nM
- Cc1ncc(NC(=O)c2cccc(C(F)(F)F)c2)cc1-c1cnc2c(c1)N1CCOC[C@H]1[C@](F)(CO)C2 — 11-fold higher, 1.1 nM
- Cc1ccc(NC(=O)c2ccnc(C(C)(F)F)c2)cc1-c1ccc2c(c1)N1CCOC[C@@H]1[C@](C)(N)C2 — 4-fold lower, 0.025 nM
- CNC(=O)[C@@H]1Cc2ccc(-c3cc(NC(=O)c4ccnc(C(F)(F)F)c4)ccc3C)cc2N2CCOC[C@H]12 — within 1.5-fold, 0.13 nM
- Cc1ccc(NC(=O)c2ccnc(C(F)(F)F)c2)cc1-c1cnc2c(c1)N1CCOCC1[C@H](CO)C2 (mixture of isomers) — 20-fold lower, 0.005 nM
- Cc1ccc(NC(=O)c2ccnc(C(F)(F)F)c2)cc1-c1cnc2c(c1)N1CCOCC1C(CS(C)(=O)=O)C2 (racemic) — 2.6-fold lower, 0.038 nM
- Cc1ncc(NC(=O)c2cccc(C(F)(F)F)c2)cc1-c1ccc2c(c1)N1CCOCC1CC2O (racemic) — 10-fold lower, 0.01 nM

For `CNC(=O)C1Cc2ccc(-c3cc(NC(=O)c4ccnc(C(F)(F)F)c4)ccc3C)cc2N2CCOC[C@@H]12` (some centres not stated), the IC50 was 0.032 nM and 0.027 nM.
In the case of `CNC(=O)C1Cc2ccc(-c3cc(NC(=O)c4ccnc(C(F)(F)F)c4)ccc3C)cc2N2CCOC[C@H]12` (some centres not stated), the IC50 is reported as 0.028 nM and 0.014 nM.
